The values below are quoted from earlier work in patent US4746734A, “Partially methylated cyclodextrins and process for producing the same” (Sanraku Incorporated, priority 1985, dated 1988).

For the data set the following is noted: background statement.

`OC[C@H]1O[C@@H]2O[C@H]3[C@H](O)[C@@H](O)[C@@H](O[C@H]4[C@H](O)[C@@H](O)[C@@H](O[C@H]5[C@H](O)[C@@H](O)[C@@H](O[C@H]6[C@H](O)[C@@H](O)[C@@H](O[C@H]7[C@H](O)[C@@H](O)[C@@H](O[C@H]8[C@H](O)[C@@H](O)[C@@H](O[C@H]1[C@H](O)[C@H]2O)O[C@@H]8CO)O[C@@H]7CO)O[C@@H]6CO)O[C@@H]5CO)O[C@@H]4CO)O[C@@H]3CO` [β-CD]: the “solubility in water (description of prior art)” value is given as “particularly low in water solubility”.
